Reference: US20240197166A1, “COMPUTATIONAL IN SILICO MODEL FOR CORNEA BARRIER” (CFD Research Corporation, priority 2022, published 2024)

Columns and labels:
[1] = tested on: corneal barrier of the in vitro cornea device (epithelial, fibroblast, endothelial triculture); assay: Permeability of the in vitro cornea device to FSS after trypan blue exposure; format: cell-based; conditions: trypan blue injected into TFEp channel at 3 μL/min for 4 min, incubated at 37° C. for 15 min; then FSS injected into TFEp channel and permeability assayed; worded "can be"
Protocol: (§1) In some embodiments, all channels of the device can be coated with human fibronectin to facilitate cellular attachment. For example, primary human corneal fibroblasts can be seeded on Day 0. Fibroblasts can be harvested, concentrated to 1×10^7 cells/mL and injected into the stromal chamber via a remote head syringe pump at 5 μL/min until cells are homogenously distributed. Devices can then be incubated at 37° C., 5% CO2 for 4 hours to allow for attachment. Media can be subsequently refreshed every 24 hours. Primary human corneal epithelial cells can be seeded into the TFEp circulation channel on Day 3. […]
(§2) Viability can be assessed on-chip as an endpoint for epithelial, fibroblast, and endothelial cells. Devices are prepared for viability quantitation by incubation with calcein AM and ethidium homodimer in PBS. After rinsing the cells with PBS, fluorescent images are taken via microscope, and the data was analyzed to determine cornea triculture viability (scc, FIG. 5A). […]
Following exposure, FSS can be injected into the TFEp channel and permeability assayed. […] Samples can be taken from cell-laden channels (individually or combined) and placed in a low volume, white walled […] plate for luminescence analysis using a plate reader. […] The increase in AK release in arbitrary luminescence units compares the toxic exposure of trypan blue to positive and negative controls. […]

[2] = tested on: cells of the in vitro cornea device (cell-laden channels); assay: Cytotoxicity by adenylate kinase release (luminescence) from the cell-laden channels of the in vitro cornea device; format: cell-based; conditions: trypan blue exposure; compared with positive control (100% death by lysis buffer) and negative control (media only); arbitrary luminescence units; worded "expected"
Protocol: as §1, §2
Following exposure, FSS can be injected into the TFEp channel and permeability assayed. […] Samples can be taken from cell-laden channels (individually or combined) and placed in a low volume, white walled […] plate for luminescence analysis using a plate reader. […] The increase in AK release in arbitrary luminescence units compares the toxic exposure of trypan blue to positive and negative controls.

In the case of `Cc1cc(-c2ccc(/N=N/c3c(S(=O)(=O)O)cc4cc(S(=O)(=O)O)cc(N)c4c3O)c(C)c2)ccc1/N=N/c1c(S(=O)(=O)O)cc2cc(S(=O)(=O)O)cc(N)c2c1O` [trypan blue], the “Permeability in trypan blue treated devices compared to controls” value [1] is reported as 10 fold and the “Increase in adenylate kinase release” value [2] is reported as 1.5 fold.
